We go through 16 compounds from PubChem BioAssay AID330 (DTP/NCI, 2004).

Several values for one entry are separate records, joined by “and”; a condition that tells them apart may be missing. Equal entries are not always repeated. Toxic doses and inconclusive results are not listed.

The test system of this assay is P388 leukemia ip, CD2F1 mice, survival T/C. Briefly: NCI In Vivo Anticancer Drug Screen. Data for tumor model P388 Leukemia (intraperitoneal) in CD2F1 (CDF1) mice. Particulars: endpoint: median survival time, higher = longer survival. Summed up: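 Mice carrying the transplanted tumor received test compound or vehicle. Survival was recorded in each group, and the value is the treated-group measurement divided by that of the vehicle-treated control group.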

Where [1] appears, read: dose: 60.0 mg/kg/injection, schedule: Q01DX005 (ip), vehicle: saline with Tween-80.
The mark [2] stands for this setting: dose: 25.0 mg/kg/injection, schedule: Q01DX009 (ip), vehicle: Klucel (hydroxypropylcellulose) (HPC).
Setting [3] is: dose: 50.0 mg/kg/injection, schedule: Q01DX009 (ip), vehicle: Klucel (hydroxypropylcellulose) (HPC).

Consider `C[C@]12C=CC(=O)C=C1CC[C@@H]1[C@@H]2[C@@H](O)C[C@@]2(C)[C@H]1CC[C@]2(O)C(=O)CF`, for which the T/C runs as follows: (dose: 6.25 mg/kg/injection, schedule: Q01DX009 (ip), vehicle: suspension in saline) 100 % of control; (dose: 12.5 mg/kg/injection, schedule: Q01DX009 (ip), vehicle: suspension in saline) 93 % of control; (dose: 25.0 mg/kg/injection, schedule: Q01DX009 (ip), vehicle: suspension in saline) 102 % of control; (dose: 50.0 mg/kg/injection, schedule: Q01DX009 (ip), vehicle: suspension in saline) 96 % of control.

Regarding `[N-]=[N+]=CC(=O)CCCCC1=CCCC1=O`, the T/C is 103 % of control (dose: 31.75 mg/kg/injection, schedule: Q01DX001 (ip), vehicle: saline with Tween-80); 93 % of control (dose: 63.5 mg/kg/injection, schedule: Q01DX001 (ip), vehicle: saline with Tween-80); 94 % of control (dose: 127.0 mg/kg/injection, schedule: Q01DX001 (ip), vehicle: saline with Tween-80).

For `Cc1nc(C(=O)c2ccccc2)cnc1-c1ccccc1`, the T/C by setting is: (dose: 60.0 mg/kg/injection, schedule: Q01DX005 (ip), vehicle: Klucel (hydroxypropylcellulose) (HPC)) 92 % of control; (dose: 120.0 mg/kg/injection, schedule: Q01DX005 (ip), vehicle: Klucel (hydroxypropylcellulose) (HPC)) 88 % of control; (dose: 240.0 mg/kg/injection, schedule: Q01DX005 (ip), vehicle: Klucel (hydroxypropylcellulose) (HPC)) 91 % of control.

Turning to `O=CN(O)CC(=O)O`, the T/C is 95 % of control (dose: 50.0 mg/kg/injection, schedule: Q01DX009 (ip), vehicle: saline with Tween-80); 104 % of control (dose: 50.0 mg/kg/injection, schedule: Q04DX003 (ip), vehicle: saline sonified); 104 % of control (dose: 100.0 mg/kg/injection, schedule: Q01DX009 (ip), vehicle: saline with Tween-80); 100 % of control (dose: 100.0 mg/kg/injection, schedule: Q01DX009 (ip), vehicle: saline); 100 % of control (dose: 100.0 mg/kg/injection, schedule: Q04DX003 (ip), vehicle: saline sonified); 100 % of control (dose: 100.0 mg/kg/injection, schedule: Q04DX003 (ip), vehicle: saline). Also, the T/C by setting is: (dose: 200.0 mg/kg/injection, schedule: Q01DX009 (ip), vehicle: saline with Tween-80) 95 % of control; (dose: 200.0 mg/kg/injection, schedule: Q01DX009 (ip), vehicle: saline) 109 % of control; (dose: 200.0 mg/kg/injection, schedule: Q04DX003 (ip), vehicle: saline sonified) 100 % of control; (dose: 200.0 mg/kg/injection, schedule: Q04DX003 (ip), vehicle: saline) 108 % of control; (dose: 400.0 mg/kg/injection, schedule: Q01DX009 (ip), vehicle: saline with Tween-80) 100 % of control; (dose: 400.0 mg/kg/injection, schedule: Q01DX009 (ip), vehicle: saline) 100 % of control. In addition, the T/C is, setting by setting: (dose: 400.0 mg/kg/injection, schedule: Q04DX003 (ip), vehicle: saline sonified) 100 % of control; (dose: 400.0 mg/kg/injection, schedule: Q04DX003 (ip), vehicle: saline) 91 % of control.

Consider `CC1CN(C(=O)/C=C/C(=O)OC2CCCCC2)CCN1C(=O)/C=C/C(=O)OC1CCCCC1` (stereo not given), for which the T/C by setting is: (dose: 50.0 mg/kg/injection, schedule: Q01DX005 (ip), vehicle: Klucel (hydroxypropylcellulose) (HPC)) 100 % of control; (dose: 100.0 mg/kg/injection, schedule: Q01DX005 (ip), vehicle: Klucel (hydroxypropylcellulose) (HPC)) 100 % of control; (dose: 200.0 mg/kg/injection, schedule: Q01DX005 (ip), vehicle: Klucel (hydroxypropylcellulose) (HPC)) 98 % of control.

In the case of `C#CC(C(C)C)N(CCO)CCCC` (stereo not given), the T/C is, setting by setting: under setting [1], 105 % of control; (dose: 120.0 mg/kg/injection, schedule: Q01DX005 (ip), vehicle: saline with Tween-80) 104 % of control; (dose: 240.0 mg/kg/injection, schedule: Q01DX005 (ip), vehicle: saline with Tween-80) 102 % of control.

Consider `CCCCCCCCCCCC(=O)NC(=O)N1CCOCC1`, for which the T/C was 95 % of control (dose: 100.0 mg/kg/injection, schedule: Q01DX001 (ip), vehicle: saline with Tween-80); 100 % of control (dose: 200.0 mg/kg/injection, schedule: Q01DX001 (ip), vehicle: saline with Tween-80); 100 % of control (dose: 400.0 mg/kg/injection, schedule: Q01DX001 (ip), vehicle: saline with Tween-80).

For the compound `CCn1c2ccccc2c2cc(N)c(N=Nc3ccc(-c4ccc(N)c(OC)c4)cc3OC)cc21`, the T/C (dose: 100.0 mg/kg/injection, schedule: Q04DX003 (ip), vehicle: Klucel (hydroxypropylcellulose) (HPC)) was 94 % of control; the T/C (dose: 200.0 mg/kg/injection, schedule: Q04DX003 (ip), vehicle: Klucel (hydroxypropylcellulose) (HPC)) is 95 % of control; the T/C (dose: 400.0 mg/kg/injection, schedule: Q04DX003 (ip), vehicle: Klucel (hydroxypropylcellulose) (HPC)) was 88 % of control.

Turning to `COC(=O)c1cc(Cl)ccc1NCC(N)c1ccccc1` (stereo not given), the T/C was 99 % of control (dose: 30.0 mg/kg/injection, schedule: Q01DX005 (ip), vehicle: saline with Tween-80); 101 % of control and 97 % of control under setting [1].

As for `COCC1OC2OC3C(COC)OC(OC4C(COC)OC(OC5C(COC)OC(OC6C(COC)OC(OC7C(COC)OC(OC8C(COC)OC(OC1C(O)C2O)C(O)C8O)C(O)C7O)C(O)C6O)C(O)C5O)C(O)C4O)C(O)C3O` (stereo not given) (tested in a mixture with another compound), the T/C by setting is: under setting [2], 100 % of control and 102 % of control; under setting [3], 99 % of control and 100 % of control; (dose: 100.0 mg/kg/injection, schedule: Q01DX009 (ip), vehicle: Klucel (hydroxypropylcellulose) (HPC)) 98 % of control; (dose: 200.0 mg/kg/injection, schedule: Q01DX009 (ip), vehicle: Klucel (hydroxypropylcellulose) (HPC)) 95 % of control and 97 % of control; (dose: 400.0 mg/kg/injection, schedule: Q01DX009 (ip), vehicle: Klucel (hydroxypropylcellulose) (HPC)) 93 % of control and 95 % of control.

On to `COC(=O)C1=CO[C@@H](C)[C@@H]2CN3CCc4c([nH]c5ccc(OC)cc45)[C@@H]3C[C@H]12`, for which the T/C by setting is: (dose: 50.0 mg/kg/injection, schedule: Q01DX005 (ip), vehicle: saline with Tween-80) 106 % of control; (dose: 100.0 mg/kg/injection, schedule: Q01DX005 (ip), vehicle: saline with Tween-80) 101 % of control; (dose: 200.0 mg/kg/injection, schedule: Q01DX005 (ip), vehicle: saline with Tween-80) 105 % of control.

`CCOC(=O)NC(=S)c1ccc[nH]1`: the T/C is, setting by setting: (dose: 12.5 mg/kg/injection, schedule: Q01DX009 (ip), vehicle: Klucel (hydroxypropylcellulose) (HPC)) 95 % of control; under setting [2], 87 % of control; under setting [3], 95 % of control and 98 % of control.

Turning to `COc1ccc(CC2c3cc(OC)c(OC)c(OC)c3CC[N+]2(C)C)cc1Oc1ccc(CC2c3cc4c(c(OC)c3CCN2C)OCO4)cc1` (stereo not given), the T/C runs as follows: (dose: 3.13 mg/kg/injection, schedule: Q04DX002 (ip), vehicle: saline) 99 % of control; (dose: 6.25 mg/kg/injection, schedule: Q04DX002 (ip), vehicle: saline) 103 % of control.

As to `c1ccc(CCNCCN2CCNCC2)cc1`, the T/C was 108 % of control (dose: 60.0 mg/kg/injection, schedule: Q01DX005 (ip), vehicle: saline) and 99 % of control (dose: 120.0 mg/kg/injection, schedule: Q01DX005 (ip), vehicle: saline).

Regarding `Nc1ccn([C@@H](C=O)C[C@@H](C=O)CO)c(=O)n1`, the T/C runs as follows: (dose: 25.0 mg/kg/injection, schedule: Q01DX005 (ip), vehicle: saline) 112 % of control; (dose: 200.0 mg/kg/injection, schedule: Q01DX005 (ip), vehicle: saline) 150 % of control; (dose: 400.0 mg/kg/injection, schedule: Q01DX005 (ip), vehicle: saline) 166 % of control.

For `CC(C)(C)/C(O)=C/c1nc2ccc(Cl)cc2[nH]c1=O`, the T/C is 97 % of control (dose: 7.5 mg/kg/injection, schedule: Q01DX005 (ip), vehicle: Klucel + Tween-80); 92 % of control (dose: 15.0 mg/kg/injection, schedule: Q01DX005 (ip), vehicle: Klucel + Tween-80); 88 % of control (dose: 30.0 mg/kg/injection, schedule: Q01DX005 (ip), vehicle: Klucel + Tween-80); 90 % of control (dose: 240.0 mg/kg/injection, schedule: Q01DX005 (ip), vehicle: Klucel + Tween-80).
